Laboratory results from patent US8653115B2, “Heterocyclic non-nucleoside compounds, their preparation, pharmaceutical composition and their use as antiviral agents” (Shanghai Institute of Materia Medica, Chinese Academy of …, priority 2006, dated 2014).

Tests used:
[1] = Cytotoxicity to HepG2.2.15 cells, MTT method; format: cell-based; conditions: human, HepG2.2.15 cells (HBV-transgenic human hepatoma cell line), day 8, 50% death concentration
Method: (§1) Hepatitis B virus (HBV) transgenic human hepatoma carcinoma cell, HepG2.2.15 cell line, can secrete hepatitis B virus particles (containing antigen and DNA) into the supernatant when being incubated.
(§2) Under the influence of antiviral drugs, the contents of HBsAg, HBeAg and viral DNA secreted from cells into the supernatant were detected. Compared with the contents of control groups without drugs, the antiviral activity of the sample drugs can be observed. Meanwhile, the cytotoxic effect of the sample drugs can be detected. The value concentration of the sample drugs which caused 50% of the cells dead measured with MTT method was CC50. And the value concentration of the sample drugs which inhibited 50% of the secretion of HBsAg and HBeAg detected by specific ELISA kits and inhibited 50% of the viral DNA replication detected by fluorescent quantitation PCR method was IC50.
(§3) HepG2.2.15 cells were inoculated into a 96-well plate, and the sample drugs were added next day. The medium and the sample drugs with the same concentration were renewed periodically, and the supernatants were collected on the eighth day to be detected. MTT was added to the cells in the 96-well plate, and MTT dissolving solution was added after 4 hours and reacted overnight. OD570 was measured on ELISA the next day. The cytotoxicity of the sample drugs to HepG2.2.15 cells, the effect of the sample drugs on the growth of the cells, and the concentration of the sample drugs (CC50) resulting in 50% of the cells dead were estimated according to the OD values.

[2] = test system: Duck hepatitis B virus (DHBV); assay: Anti hepatitis B virus activity on animal: DHBV-DNA level in serum of infected ducks, dot blot hybridization; format: in vivo, Beijing duck; conditions: 50 mg/kg oral (intragastric) twice per day for 10 days; for inhibitory effect to DHBV-DNA in duck serum, group analysis (versus virus control group) / inhibitory effect to DHBV-DNA in duck serum, paired analysis (versus T0 of same group): T5, T10, P3
Method: The solutions of the sample drugs having required concentration (100 mg/mL) were prepared by using 0.3% sodium carboxymethyl cellulose. Batch number: 00701010
Strong positive serum of Duck hepatitis B virus DNA (DHBV-DNA), collected from Shanghai brown-duck, was store at −70[…].
1-day-old Beijing duck, purchased from Beijing QianJin breeding duck farm.
1-day-old Beijing duck was injected DHBV-DNA positive serum of Shanghai brown-duck via vena cruralis with 0.2 ml/each duck. Blood was taken on the seventh day after infected; serum was separated and stored at −70[…] to be detected.
DHBV infected ducklings were randomly grouped (six ducklings/each group) to carry out drug treatment experiment after 7 days. The administration groups (W28D, W28F, W28M, C37) were set 1 dose group—50 mg/kg respectively, and oral (intragastric) administered twice per day for 10 days (Bid×10). The drugs were replaced with normal saline in virus control group (DHBV). […] Blood was taken from the vena cruralis of the duck after 7 days later of infection, i.e. before drug administration (T0), the fifth day (T5) and the tenth day after drug administration (T10), and the third day after drug withdrawal (P3), then serum was separated and stored at −70[…] to be detected.
The above duck serum was taken and dotted on the membrane to measure the dynamic level of DHBV-DNA in the duck serum. According to the instruction of nick translation kit, dot blot hybridization of duck serum and was carried out using ^32 P labeled DHBV-DNA probe (purchased from Promega Co.). And the dots were shown on the membrane by radioautography. The OD values (the filter was 490 nm) of the dots on the membrane were measured by ELISA. DHBV-DNA density of the serum was calculated and the OD values of the hybridized dot were used as the values of DHBV-DNA level.
a) The mean values (X±SD) of DHBV-DNA OD values of serum at different time of the ducks in each group were calculated, and the DNA levels of serum at different time after drug administration (T5, T10) and the third day after drug withdrawal (P3) for the ducks in each group and were compared with the OD values before administration (T0) of the same group. The values of t1 and P1 were calculated by paired-t test. The significance of the difference was analyzed, and the inhibitory effect of the drugs on the viral infection was estimated.
b). The inhibition ratio (%) to DHBV-DNA of serum at different time after administration (T5, T10) and the third day after drug withdrawal (P3) of the ducks in each group were calculated and illuminated in the figure, and the dynamic state of the inhibition ratios of DHBV-DNA in duck serum in each group were compared.
c) The inhibitions % of DHBV-DNA at different time of the administration group were compared with that at the same time of the virus control group. […] The significance of the difference was analyzed, and the drug action was estimated.

[3] = test system: Hepatitis B virus (HBV) DNA; assay: HBV-DNA replication in HepG2.2.15 supernatant, fluorescent quantification PCR; format: cell-based; conditions: Hepatitis B virus, 192 h; HepG2.2.15 supernatant, day 8, PCR; NA means no obvious biological activity or unable to be calculated
Method: as §1, §2, §3
A suitable amount of supernatant was added to the same volume of virus extract solution, and was boiled after mixed homogenously, then centrifuged at 10000 rpm under room temperature for 5 minutes, and a suitable amount of supernatant was collected for PCR amplification. Meanwhile five HBV-DNA standard samples were set to establish a standard curve. According to the obtained viral DNA replication value, the inhibition ratios of HBV-DNA replication of each sample drug at different concentrations were calculated, and then the half inhibition rates of the sample drugs were calculated to obtain IC50. For those samples that can not be calculated for IC50 values, they can be represented by ICx and list the corresponding concentration values.

SMILES	CC50 at 8 day [1] [nM]	inhibitory effect to DHBV-DNA in duck serum, group analysis (versus virus control group) [2]	inhibitory effect to DHBV-DNA in duck serum, paired analysis (versus T0 of same group) [2]	IC50 [3] [nM]	DHBV-DNA rebound 3 days after drug withdrawal (P3) ([2]; then P3)
COc1ccc(-c2nc(C(=O)OC(C)C)c(CC(C)C)s2)cc1 [C37]	> 33000	at each time point did not show inhibitory effect to DHBV-DNA	at each time point did not show inhibitory effect to DHBV-DNA	30	
CC(C)Cc1sc(-c2nccs2)nc1C(=O)OC(C)C [C310-4]	> 100000	T10 showed inhibitory effect to DHBV-DNA with statistical significance	T10 showed inhibitory effect to DHBV-DNA with statistical significance	810	
CC(C)Cc1sc(-c2nccs2)nc1C(=O)NCc1ccc(F)cc1 [W28F]	43000	T5 and T10 showed inhibitory effect to DHBV-DNA with statistical significance	T5 and T10 showed inhibitory effect to DHBV-DNA with statistical significance	780	rebounded, it did not reach the original level
Cc1cnc(-c2nc(C(=O)OC(C)C)c(CC(C)C)s2)s1 [W28M]	> 20000	did not show any effect with statistical significance	T10 and P3 showed inhibitory effect to DHBV-DNA with statistical significance	< 80	
